Earlier results, collected in publication PMC9917560, “Design, Synthesis and Antimicrobial Evaluation of New N-(1-Hydroxy-1,3-dihydrobenzo[c][1,2]oxaborol-6-yl)(hetero)aryl-2-carboxamides as Potential Inhibitors of Mycobacterial Leucyl-tRNA Synthetase” (International Journal of Molecular Sciences, 2023).
Marks after values point to notes of the source that are not given here.

How the values were obtained:
[1] = test system: Mtb H37Rv; set-up: method as in PMID 27503647; details: compounds synthesized and evaluated by Palencia et al. ref [13]; cited from earlier work
[2] = test system: Mtb LeuRS; set-up: method as in PMID 27503647, PMID 28953378; details: ref [13],[14]; read-out: IC50 against LeuRS; cited from earlier work

SMILES	MIC Mtb H37Rv [1]	IC50 [2] [nM]
OB1OCc2ccccc21 [Compound C00021, (3H)-Benzo[c][1,2]oxaborol-1-ol]	55.99 * µM	–
NC[C@H]1OB(O)c2c(OCCO)ccc(Cl)c21 [GSK656, (S)-3-(Aminomethyl)-4-chloro-7-(2hydroxyethoxy)benzo c 1,2 oxaborol-1(3 H)-ol]	–	200
